Data as given in paper PMC5053523, “In Vitro Antibacterial Activity of Rhodanine Derivatives against Pathogenic Clinical Isolates” (PLoS ONE, 2016).
In brackets after ≈: the same amount, converted by molar mass. Read-outs that look alike come from different tables or passages of the source.

Legend:
Escherichia coli Δ acrAB = test: MIC against E. coli 1411 and AcrAB efflux pump deficient E. coli SM1411Δ acrAB; assay type: cell-based
Procedure, shortened: (§1)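 Sub-MIC colistin or PMBN added to broth MIC tests of rhodanines and reference antibiotics against Gram-negative strains; AcrAB efflux-deficient E. coli SM1411ΔacrAB also tested.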

Escherichia coli O157:H7 [1] = test: MIC with/without PMBN, Escherichia coli O157:H7; assay type: cell-based
Procedure, shortened: as §1

Clostridium difficile = test: MIC against Clostridium difficile, anaerobic broth dilution; assay type: cell-based; settings: Clostridioides difficile
Procedure, shortened: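 Clinical C. difficile isolates grown anaerobically 48 h at 37 °C, suspended to 0.5 McFarland and diluted 1:300 in pre-reduced supplemented Brain Heart Infusion broth. Compounds serially diluted; plates incubated anaerobically at 37 °C for 48 h. MIC = lowest concentration with no visible growth.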

B. licheniformis = test: Broth microdilution MIC/MBC, B. licheniformis; assay type: cell-based; settings: Bacillus licheniformis; for MBC: read-out: MBC; for MIC: read-out: MIC
[2] = test system: Vancomycin Resistant Staphylococcus aureus (VRSA); test: Broth microdilution MIC/MBC, VRSA; assay type: cell-based; settings: for MBC / MIC: VRSA
Klebsiella pneumoniae = test: MIC with/without sub-MIC colistin, Klebsiella pneumoniae; assay type: cell-based
Procedure, shortened: as §1

B. cereus = test: Broth microdilution MIC/MBC, B. cereus; assay type: cell-based; settings: Bacillus cereus; for MBC: read-out: MBC; for MIC: read-out: MIC
Description: The broth microdilution technique was used, followed by subculturing on agar plates that were rhodanine—free.

Acinetobacter baumannii = test: MIC with/without sub-MIC colistin, Acinetobacter baumannii; assay type: cell-based
Procedure, shortened: as §1

Mycobacterium smegmatis = test: Broth microdilution MIC/MBC, Mycobacterium smegmatis; assay type: cell-based; settings: Mycolicibacterium smegmatis, ATCC14468, M. Smegmatis ATCC 14468
Bacillus Strains = test: Broth microdilution MIC50/MIC90 and MIC range, Bacillus strains panel; assay type: cell-based, Bacillus spp.; settings: 10 Bacillus strains
Description: The broth microdilution technique was used, followed by subculturing on agar plates that were rhodanine—free. […] The MICs reported represent the lowest concentration of each compound necessary to inhibit bacterial growth and the MBCs represent the lowest concentration required to reduce the initial bacterial inoculum by ≥ 99.9%.

[3] = test system: vancomycin resistant enterococci (VRE) E. faecium; test: Broth microdilution MIC/MBC, VRE E. faecium; assay type: cell-based; settings: for MIC: read-out: MIC
Escherichia coli O157:H7 [4] = test: MIC with/without sub-MIC colistin, Escherichia coli O157:H7; assay type: cell-based
Procedure, shortened: as §1

Candida albicans = test: MIC against Candida albicans; assay type: cell-based; settings: table prints none, read-out: MIC
[5] = NCIB9375, B. licheniformis Gibson 46 (NCIB 9375) NR-2494
[6] = NRS712, B. licheniformis NRS 712 NR-2499
[7] = NRS201, B. cereus NRS 201 NR-2488
[8] = E. faecium HM 968 Strain ERV102
[9] = E. faecium NR31914 Strain E0120
[10] = E. faecium Patient #1–1 NR-31903

O=C(O)[C@@H](Cc1ccccc1)N1C(=O)/C(=C/c2cccc(Oc3ccc(F)cc3)c2)SC1=S [Rh 4]
MIC (Escherichia coli Δ acrAB; E.coli 1411): > 64 µM
MIC (Escherichia coli Δ acrAB; E.coli 1411 SM (Δ acrAB, AcrAB efflux pump deficient)): > 64 µM
MIC (Escherichia coli O157:H7 [1]; Escherichia coli O157:H7 ATCC 35150, PMBN (+) 4 μg/mL, read-out: MIC): 8 µM (≈ 3.84 µg/mL)
MIC (Escherichia coli O157:H7 [1]; Escherichia coli O157:H7 ATCC 700728, PMBN (+) 4 μg/mL, read-out: MIC): >64 µM
MIC (Escherichia coli O157:H7 [1]; Escherichia coli, ATCC35150): > 256 µM
MIC (Escherichia coli O157:H7 [1]; Escherichia coli, ATCC700728): > 128 µM
MIC (Clostridium difficile; C. difficile HM-88): 4 µM (≈ 1.92 µg/mL)
MIC (Clostridium difficile; C. difficile HM-745): 2 µM (≈ 0.959 µg/mL)
MIC (Clostridium difficile; C. difficile HM-746): 2 µM (≈ 0.959 µg/mL)
MIC (Clostridium difficile; C. difficile Isolate-1 NR-13427): 2 µM (≈ 0.959 µg/mL)
MIC (Clostridium difficile; C. difficile Toxigenic Strain P8 NR-32888): 4 µM (≈ 1.92 µg/mL)
MBC (B. licheniformis; [5]): 16 µM (≈ 7.67 µg/mL)
MIC (B. licheniformis; [5]): 16 µM (≈ 7.67 µg/mL)
MBC (B. licheniformis; [6]): 16 µM (≈ 7.67 µg/mL)
MIC (B. licheniformis; [6]): 16 µM (≈ 7.67 µg/mL)
MIC50 ([2]; 15 VRSA strains, read-out: MIC 50): 16 µM (≈ 7.67 µg/mL)
MIC90 ([2]; 15 VRSA strains, read-out: MIC 90): 16 µM (≈ 7.67 µg/mL)
MBC ([2]; VRSA 1, read-out: MBC): 64 µM (≈ 30.7 µg/mL)
MIC ([2]; VRSA 1, read-out: MIC): 16 µM (≈ 7.67 µg/mL)
MBC ([2]; VRSA 2, read-out: MBC): 16 µM (≈ 7.67 µg/mL)
MIC ([2]; VRSA 2, read-out: MIC): 16 µM (≈ 7.67 µg/mL)
MBC ([2]; VRSA 3a, read-out: MBC): 32 µM (≈ 15.3 µg/mL)
MIC ([2]; VRSA 3a, read-out: MIC): 16 µM (≈ 7.67 µg/mL)
MBC ([2]; VRSA 3b, read-out: MBC): 16 µM (≈ 7.67 µg/mL)
MIC ([2]; VRSA 3b, read-out: MIC): 16 µM (≈ 7.67 µg/mL)
MBC ([2]; VRSA 4, read-out: MBC): 64 µM (≈ 30.7 µg/mL)
MIC ([2]; VRSA 4, read-out: MIC): 16 µM (≈ 7.67 µg/mL)
MBC ([2]; VRSA 5, read-out: MBC): 32 µM (≈ 15.3 µg/mL)
MIC ([2]; VRSA 5, read-out: MIC): 16 µM (≈ 7.67 µg/mL)
MBC ([2]; VRSA 6, read-out: MBC): 32 µM (≈ 15.3 µg/mL)
MIC ([2]; VRSA 6, read-out: MIC): 16 µM (≈ 7.67 µg/mL)
MBC ([2]; VRSA 7, read-out: MBC): 32 µM (≈ 15.3 µg/mL)
MIC ([2]; VRSA 7, read-out: MIC): 16 µM (≈ 7.67 µg/mL)
MBC ([2]; VRSA 8, read-out: MBC): 32 µM (≈ 15.3 µg/mL)
MIC ([2]; VRSA 8, read-out: MIC): 16 µM (≈ 7.67 µg/mL)
MBC ([2]; VRSA 9, read-out: MBC): 32 µM (≈ 15.3 µg/mL)
MIC ([2]; VRSA 9, read-out: MIC): 32 µM (≈ 15.3 µg/mL)
MBC ([2]; VRSA 10, read-out: MBC): 32 µM (≈ 15.3 µg/mL)
MIC ([2]; VRSA 10, read-out: MIC): 16 µM (≈ 7.67 µg/mL)
MBC ([2]; VRSA 11a, read-out: MBC): 64 µM (≈ 30.7 µg/mL)
MIC ([2]; VRSA 11a, read-out: MIC): 16 µM (≈ 7.67 µg/mL)
MBC ([2]; VRSA 11b, read-out: MBC): 64 µM (≈ 30.7 µg/mL)
MIC ([2]; VRSA 11b, read-out: MIC): 16 µM (≈ 7.67 µg/mL)
MBC ([2]; VRSA 12, read-out: MBC): 64 µM (≈ 30.7 µg/mL)
MIC ([2]; VRSA 12, read-out: MIC): 16 µM (≈ 7.67 µg/mL)
MBC ([2]; VRSA 13, read-out: MBC): 64 µM (≈ 30.7 µg/mL)
MIC ([2]; VRSA 13, read-out: MIC): 16 µM (≈ 7.67 µg/mL)
MIC (Klebsiella pneumoniae; Klebsiella pneumoniae ATCC BAA 2146, colistin (+) […]): >64 µM
MIC (Klebsiella pneumoniae; Klebsiella pneumoniae, BAA2146): > 128 µM
MBC (B. cereus; B. cereus BAG1O-2 NR-28582): 8 µM (≈ 3.84 µg/mL)
MIC (B. cereus; B. cereus BAG1O-2 NR-28582): 8 µM (≈ 3.84 µg/mL)
MBC (B. cereus; B. cereus BAG1X1-1 NR-28575): 8 µM (≈ 3.84 µg/mL)
MIC (B. cereus; B. cereus BAG1X1-1 NR-28575): 8 µM (≈ 3.84 µg/mL)
MBC (B. cereus; B. cereus BAG1X2-1 NR-28578): 8 µM (≈ 3.84 µg/mL)
MIC (B. cereus; B. cereus BAG1X2-1 NR-28578): 8 µM (≈ 3.84 µg/mL)
MBC (B. cereus; B. cereus G9241 NR-9564): 16 µM (≈ 7.67 µg/mL)
MIC (B. cereus; B. cereus G9241 NR-9564): 16 µM (≈ 7.67 µg/mL)
MBC (B. cereus; B. cereus VD014 NR-22141): 8 µM (≈ 3.84 µg/mL)
MIC (B. cereus; B. cereus VD014 NR-22141): 8 µM (≈ 3.84 µg/mL)
MBC (B. cereus; B. cereus VD115 NR-22148): 8 µM (≈ 3.84 µg/mL)
MIC (B. cereus; B. cereus VD115 NR-22148): 8 µM (≈ 3.84 µg/mL)
MBC (B. cereus; B. cereus VD148 NR-22150): 8 µM (≈ 3.84 µg/mL)
MIC (B. cereus; B. cereus VD148 NR-22150): 8 µM (≈ 3.84 µg/mL)
MBC (B. cereus; [7]): > 64 µM
MIC (B. cereus; [7]): 8 µM (≈ 3.84 µg/mL)
MIC (Acinetobacter baumannii; Acinetobacter baumannii ATCC BAA747, colistin (+) […], read-out: MIC): >64 µM
MIC (Acinetobacter baumannii; Acinetobacter baumannii ATCC BAA19606, colistin (+) […], read-out: MIC): >64 µM
MIC (Acinetobacter baumannii; Acinetobacter baumannii, ATCCBAA747): > 128 µM
MIC (Acinetobacter baumannii; Acinetobacter baumannii, ATCCBAA19606): > 128 µM
MBC (Mycobacterium smegmatis; read-out: MBC): > 64 µM
MIC (Mycobacterium smegmatis; read-out: MIC): 32 µM (≈ 15.3 µg/mL)
MIC50 (Bacillus Strains): 8 µM (≈ 3.84 µg/mL)
MIC90 (Bacillus Strains): 16 µM (≈ 7.67 µg/mL)
MBC ([3]; E. faecium E417 HM-965): > 64 µM
MIC ([3]; E. faecium E417 HM-965): 16 µM (≈ 7.67 µg/mL)
MBC ([3]; E. faecium E1071 NR-28978): 64 µM (≈ 30.7 µg/mL)
MIC ([3]; E. faecium E1071 NR-28978): 32 µM (≈ 15.3 µg/mL)
MBC [3, 8]: 64 µM (≈ 30.7 µg/mL)
MIC [3, 8]: 32 µM (≈ 15.3 µg/mL)
MBC [3, 9]: 64 µM (≈ 30.7 µg/mL)
MIC [3, 9]: 32 µM (≈ 15.3 µg/mL)
MBC [3, 10]: 64 µM (≈ 30.7 µg/mL)
MIC [3, 10]: 16 µM (≈ 7.67 µg/mL)
MIC (Escherichia coli O157:H7 [4]; Escherichia coli O157:H7 ATCC 35150, colistin (+) […], read-out: MIC): >64 µM
MIC (Escherichia coli O157:H7 [4]; Escherichia coli O157:H7 ATCC 700728, colistin (+) […], read-out: MIC): >64 µM
MIC (Escherichia coli O157:H7 [4]; Escherichia coli, ATCC35150): > 128 µM
MIC (Escherichia coli O157:H7 [4]; Escherichia coli, ATCC700728): > 128 µM
MIC (Candida albicans; ATCC10231, C. albicans ATCC 10231, unit from abstract): > 64 µM
MIC (Candida albicans; C. albicans NR 29434, unit from abstract): > 64 µM
MIC (Candida albicans; C. albicans NR 29435, unit from abstract): > 64 µM
MIC (Candida albicans; C. albicans NR29437, unit from abstract): > 64 µM
MIC (Candida albicans; C. albicans NR29438, unit from abstract): > 64 µM
MIC (Candida albicans; C. albicans NR 29446, unit from abstract): 64 µM (≈ 30.7 µg/mL)
MIC (Candida albicans; C. albicans NR 29448, unit from abstract): > 64 µM
MIC (Candida albicans; C. albicans NR 29449, unit from abstract): > 64 µM
MIC (Candida albicans; C. albicans NR 29453, unit from abstract): > 64 µM
MIC (Candida albicans; C. albicans NR 294436, unit from abstract): > 64 µM
